Measured values as given in patent US10752900B2, “Oligonucleotides for modulating gene expression and uses thereof” (BIOGENERA S.P.A., priority 2012, dated 2020).

What was measured:
[1] = system: MYCN gene; experiment: QT-PCR, MYCN mRNA in Kelly cells; type: cell-based, human; conditions: for mRNA inhibition (%): Table 1, PNA 1 μM, RNA extracted after 24 hours; for mRNA inhibit. (%): Table 11, MYCN, 2.5 μM
Protocol: (§1) For the purpose of assessing the ability of the oligonucleotides of the present invention to modulate the expression of the target genes, their ability to reduce the quantity of messenger RNA was analyzed using the Real-Time PCR technique.
(§2) For this purpose, use was made of 24-well plates, which were seeded with 5.0×10^4 cells with 0.3 ml of OPTI-MEM (GIBCO BRL) medium, 4% FBS and 2 mM L-glutammine (experiments in triplicate) per well.
(§3) The cells were incubated for 24 hours at 37° C., in an atmosphere containing 5% CO2 to permit adherence to the base of the wells.
Each oligonucleotide analyzed, except for the PNA oligonucleotides, was incubated beforehand with 2 μl of Lipofectamine 2000 (Invitrogen), with 0.3 mL of serum-free OPTI-MEM (GIBCO BRL) medium.
(§4) For each well, the oligonucleotides were analyzed at the following final concentrations: • the antisense oligonucleotides siRNA and siRNA gapmer (i.e. the oligonucleotides containing one or more monomers of chemically modified nucleic acids at the 3′ or 5′ end, while in the central portion they have monomers of nucleic acids that have not been modified or have been modified at the level of the phosphodiester bond as a phosphorothioate bond) were used at 200 nM; • the antisense oligonucleotides containing phosphorothioate DNA monomers, the RNA antigene oligonucleotides (agRNA) and the oligonucleotides containing DNA monomers and LNA monomers were used at 10 μM; • the morpholino oligonucleotides were used at a concentration of 1 μM, and • the PNA oligonucleotides were administered at a concentration of 1 μM.
(§5) The cells were treated with the oligonucleotides, adding FBS up to 4% 6 hours after administration of the same. After 24 hours the total RNA was extracted from each well and purified using the RNeasy Mini Kit (QIAGEN).
(§6) Assays were performed on 8 cell lines obtained from 5 different human tumours which are correlated with MYCN expression, i.e.: • as a neuroblastoma model use was made of the cell lines Kelly, IMR-32 (where the MYCN gene is amplified and superexpressed) and SKNBE2c and LAN1 (where the MYCN gene is amplified and superexpressed and the p53 gene is mutated); • as a rabdomiosarcoma model use was made of the cell line RH30, where the MYCN gene is amplified and superexpressed; • as a Wilms' tumour model use was made of the cell line WiT49, where the MYCN gene is amplified and superexpressed; • as a retinoblastoma model use was made of the cell line Y79, where the MYCN gene is amplified and superexpressed; and • as a model of small cell lung cancer use was made of the cell line H69 where the MYCN gene is amplified and superexpressed.
(§7) As a control, use was made of the same cell lines as listed above treated with sterile water instead of oligonucleotides. Each RNA sample was quantified (in duplicate) using a NanoDrop ND-1000 spectrophotometer (NanoDrop Technologies). The first strand of cDNA was produced using the cDNA Synthesis Kit for RT-PCR (Roche). For the cDNA synthesis reaction a total of 1 μg of RNA was used. For the real-time PCR, 10 ng of cDNA in a final volume of 20 μl was used with SYBR Green Master Mix 2× (Applied Biosystems) (3 identical experiments were conducted in triplicate). Two housekeeping genes were used as positive controls: GAPDH and beta-actin (ACTB).
(§8) The conditions of the QT-PCR reaction were: 10 min at 95° C., 20 sec at 95° C., and 30 sec at 60° C., for 50 cycles.
(§9) As far as the PNA oligonucleotides are concerned, the results regarding their ability to inhibit the transcription of the MYCN gene and proliferation of Kelly cells are shown in Table 1.
(§10) The oligonucleotides were tested in vitro (at a concentration of 2.5 μM) to determine their ability to inhibit the transcription of the gene they are directed against by measuring the levels of the gene messenger in cellular models in which the gene of interest is overexpressed. The methods used are the ones described in example 1. […]

[2] = system: Phoenix; experiment: Cellular proliferation, Phoenix fibroblastoid-type cells; type: cell-based; conditions: Table 1; cells that do not express MYCN
Protocol: (§11) Cell viability was assessed by means of an ATP-Lite assay (Luminescence ATP Detection Assay System, PerkinElmer) and is reported as the ratio between the average signal of the treated wells compared to the average value of the wells of untreated control cells. The cells were processed following the instructions provided with the kit.
(§12) Moreover, the oligonucleotides having SEQ ID NO 1-23 were administered in lines of fibroblastoid-type cells (NIH-3T3 and Phoenix) and the results are shown in Table 1 (last two columns). […]

[3] = system: NIH-3T3; experiment: Cellular proliferation, NIH-3T3 fibroblastoid-type cells; type: cell-based; conditions: Table 1; cells that do not express MYCN
Protocol: as §11, §12

[4] = system: Kelly cells; experiment: Cellular proliferation assay (ATP-Lite), Kelly cells; type: cell-based, human
Protocol: (§13) For the purpose of assessing the gene modulation ability of the oligonucleotides of the present invention, the effect of their administration on cell viability was determined.
(§14) For this purpose 5×10^3 cells per well were seeded into 96-well cell culture plates (experiments conducted in triplicate) with 100 μl of OPTI-MEM (GIBCO BRL) medium containing 4% FBS and 2 mM of L-glutammine.
(§15) The PNA oligonucleotides were administered at different concentrations (1 μM-2.5 μM-5 μM-10 μM) in order to observe a dose-effect relationship.
As regards all the other oligonucleotides, the concentrations at which they administered are listed in the paragraph:
(§16) The viability of the treated cells was determined at 48, 72, 96 and 168 hours after treatment.
as §11
(§17) The assays were performed on the same cell lines used to determine the levels of the MYCN gene messenger and listed in the paragraph: Treatments with Oligonucleotides—QT-PCR.
as §9
(§18) The ability of the tested oligonucleotides to inhibit the messenger of the gene of interest was measured and the proliferative capacity of the cells following administration of the oligonucleotides was also assessed.

[5] = system: MYCN gene; experiment: QT-PCR, MYCN mRNA in H69 cells; type: cell-based, human; conditions: Table 11, MYCN, 2.5 μM
Protocol: as §1, §2, §3, §4, §5, §6, §7, §8
(§19) The PNAs having SEQ ID NO: 1-12 were also tested on different cell lines which overexpress MYCN (Kelly, SKNBE2c, RH30, WiT49, WERI-Rb1 1 and H69). The results are shown in Table 6 and confirm the selectivity and specificity of the inhibition effect of the PNAs on the product of protein translation of the MYCN gene.
as §10

[6] = system: H69; experiment: Cellular proliferation assay (ATP-Lite), H69 cells; type: cell-based, human; conditions: Table 11, MYCN-directed PNA, 2.5 μM
Protocol: as §13, §14, §15, §16, §11, §17, §19, §18

[7] = Table 1, treated vs untreated control cells
[8] = Table 11, MYCN-directed PNA, 2.5 μM

Substance	mRNA inhibition (%) [1] [%]	Phoenix prolif. (%) [2] [%]	NIH-3T3 prolif. (%) [3] [%]	Cell Prolif. (%) [4, 7] [%]	mRNA inhibit. (%) [1] [%]	mRNA inhibit. (%) [5] [%]	Cell Prolif. (%) [4, 8] [%]	Cell Prolif. (%) [6] [%]
SEQ ID NO: 13: PNA antigene oligonucleotide ACGCTCAGGGACCACG directed against MYCN (all peptide nucleic acid (PNA))	48	100	100	66	–	–	–	–
SEQ ID NO: 14: PNA antigene oligonucleotide CCCGGACGAAGATGAC directed against MYCN (all peptide nucleic acid (PNA))	40	100	100	70	–	–	–	–
SEQ ID NO: 15: PNA antigene oligonucleotide ACTGTGTTGGAGCCGA directed against MYCN (all peptide nucleic acid (PNA))	37	100	100	77	–	–	–	–
SEQ ID NO: 16: PNA CCTGTCGTAGACAGCT without groups of consecutive guanines, negative control (PNA backbone, chemistry not fully specified) [reference compound]	14	100	100	90	–	–	–	–
SEQ ID NO: 17: PNA TGTGACAGTCATCTGT without groups of consecutive guanines, negative control (PNA backbone, chemistry not fully specified) [reference compound]	10	100	100	98	–	–	–	–
SEQ ID NO: 18: PNA GTGACAGTCATCTGTC without groups of consecutive guanines, negative control (PNA backbone, chemistry not fully specified) [reference compound]	10	100	100	98	–	–	–	–
SEQ ID NO: 19: PNA GACAGTCATCTGTCTG without groups of consecutive guanines, negative control (PNA backbone, chemistry not fully specified) [reference compound]	5	100	100	100	–	–	–	–
SEQ ID NO: 20: PNA CGTCGATTTCTTCCTC without groups of consecutive guanines, negative control (PNA backbone, chemistry not fully specified) [reference compound]	5	100	100	100	–	–	–	–
SEQ ID NO: 21: PNA CTCGAGTTTGACTCGC without groups of consecutive guanines, negative control (PNA backbone, chemistry not fully specified) [reference compound]	1	100	100	100	–	–	–	–
SEQ ID NO: 22: PNA GCGCCTCCCCTGATTT without groups of consecutive guanines, negative control (PNA backbone, chemistry not fully specified) [reference compound]	2	100	100	100	–	–	–	–
SEQ ID NO: 23: PNA ATATCCCCCGAGCTTC without groups of consecutive guanines, negative control (PNA backbone, chemistry not fully specified) [reference compound]	2	100	100	100	–	–	–	–
SEQ ID NO: 66: PNA TCGGGAGCAGTGGGCA directed against MYCN (all peptide nucleic acid (PNA); antigene PNA, further chemistry not fully specified)	–	–	–	–	57	41	60	73
SEQ ID NO: 67: PNA GCGGGTCGCGGGCACG directed against MYCN (all peptide nucleic acid (PNA); antigene PNA)	–	–	–	–	60	42	56	71
SEQ ID NO: 68: PNA TGGAGGTCGGCGCCGG directed against MYCN (all peptide nucleic acid (PNA); antigene PNA)	–	–	–	–	74	62	35	49
SEQ ID NO: 69: PNA TCGGCGGGAGGTAAGG directed against MYCN (all peptide nucleic acid (PNA); antigene PNA)	–	–	–	–	76	67	30	45
